Measured values taken from patent US20100317047A1, “Biomarkers of Hemorrhagic Shock” (THE GENERAL HOSPITAL CORPORATION, priority 2009, published 2010).

What was measured:
[1] = tested on: 22.7 kDa protein; experiment: SELDI-TOF MS serum protein profiling in lethal hemorrhagic shock model; type: in vivo; settings: rat serum, 24 hours after VPA 300 mg/kg via femoral vein after hemorrhage; p<0.05 vs HS, n=5
Procedure: (§1) An animal model of HS was used. Male Wistar-Kyoto rats (254.12±2.71 grams, Harlan, Indianapolis, Ind.) were used in the lethal model of hemorrhagic shock (Shults et al., J. Trauma. 2008; 64(3): 629-638). Each animal's estimated blood volume was calculated using the formula: [estimated blood volume (mL)=weight (g)×0.06 (mL/g)+0.77]. About 1.3 mL of blood was manually drawn at the beginning and end of hemorrhage for analysis (included in the total hemorrhage calculation). The animals were hemorrhaged (40% of their calculated total blood volume) via a femoral arterial catheter over 10 minutes, followed by a 20% blood volume venous bleed over the next 50 minutes. Bleeding was performed using Kent Scientific adjustable pumps (Kent Scientific Corporation, NJ). VPA (300 mg/kg) was administered via a femoral vein catheter after completion of hemorrhage. Blood pressure was monitored continuously during the experiment. The mean arterial pressure (MAP) in animals that were subjected to hemorrhage dropped sharply after bleeding to approximately 20 mm Hg. […]
ProteinChip profiling was performed on CM10 ProteinChip arrays (Ciphergen Biosystems, Fremont Calif.), as recommended by the manufacturer. […] The arrays were then inserted into a ProteinChip (Enterprise edition) TOF-MS and read at an optimized laser setting of 2000 nJ-5000 nJ. […]

[2] = tested on: claudin-3; experiment: iTRAQ quantification of serum claudin-3 peptide in hemorrhagic shock model; type: in vivo; settings: rat serum, 24 hours post-VPA treatment (300 mg/kg) vs post-hemorrhagic shock; BL to HS ratio 0.323
Procedure: as §1
Immunodepletion of serum abundant proteins was performed as follows. […] Column performance was monitored by sodium dodecyl sulphate-polyacrylamide gel electrophoresis (SDS-PAGE) followed by Coomassie Blue staining (BioBlue, BioRad). […]

[3] = tested on: claudin-3; experiment: Western blot of serum claudin-3 in hemorrhagic shock model; type: in vivo; settings: rat serum, 1 hour following VPA treatment; HS 1 hour group showed ~23 kDa and ~11 kDa bands
Procedure: An animal model of HS was used. Male Wistar-Kyoto rats (254.12±2.71 grams, Harlan, Indianapolis, Ind.) were used in the lethal model of hemorrhagic shock (Shults et al., J. Trauma. 2008; 64(3): 629-638). Each animal's estimated blood volume was calculated using the formula: [estimated blood volume (mL)=weight (g)×0.06 (mL/g)+0.77]. About 1.3 mL of blood was manually drawn at the beginning and end of hemorrhage for analysis (included in the total hemorrhage calculation). The animals were hemorrhaged (40% of their calculated total blood volume) via a femoral arterial catheter over 10 minutes, followed by a 20% blood volume venous bleed over the next 50 minutes. Bleeding was performed using Kent Scientific adjustable pumps (Kent Scientific Corporation, NJ). VPA (300 mg/kg) was administered via a femoral vein catheter after completion of hemorrhage. Blood pressure was monitored continuously during the experiment. […]
To assess whether claudin-3 is a potential biomarker, independent serum samples were taken of sham (no hemorrhage and no treatment), HS 1 hour (1 hour following hemorrhagic shock), and VPA 1 hour (1 hour following VPA treatment) from individual rats and the level of the candidate biomarker was determined by Western blot with anti-claudin-3 antibody. […]

[4] = tested on: claudin-3; experiment: Western blot of intestinal claudin-3 protein in hemorrhagic shock model; type: in vivo; settings: rat intestinal lysate, 1, 6 and 24 hours after VPA treatment, vs HS 1 hour; n=3
Procedure: as §1, with “experiment.” for “experiment. The mean arterial pressure (MAP) in animals that were subjected to hemorrhage dropped sharply after bleeding to approximately 20 mm Hg.”
Claudin-3 is a TJ protein that has important roles in establishing epithelial and endothelial barriers. To find out whether HS and VPA treatment affect claudin-3 protein in TJ of epithelial cells, protein expression was analyzed in intestinal tissue obtained from sham, HS 1 hour (1 hour after hemorrhagic shock), and VPA-treated animals (1 hour, 6 hours, and 24 hours after treatment). […]

[5] = tested on: claudin-3 mRNA; experiment: RT-PCR of intestinal claudin-3 mRNA in hemorrhagic shock model; type: in vivo; settings: rat intestine, 1, 6 and 24 hours; β-actin internal control, n=3
Procedure: To assess whether gene expression of claudin-3 responds to HS and VPA treatment, the mRNA expression of rat intestines among the groups of sham, HS and VPA treatment was compared at 1, 6 and 24 hours using RT-PCR methods.

[6] = tested on: hemorrhagic shock; experiment: Survival in lethal model of hemorrhagic shock; type: in vivo, rat; settings: rats, 60% blood volume hemorrhage, VPA 300 mg/kg; none of the untreated animals survived
Procedure: as §1, with “Hg. Blood was drawn at baseline (BL, before hemorrhage), hemorrhagic shock (HS), and 24 hours after VPA treatment from individual rats for protein biomarker screening and identification.” for “Hg.”

[7] = tested on: hemorrhagic shock; settings: rats; Shults et al. 2008, Li et al. 2008, WO 2007117272; cited from earlier work

## CCCC(CCC)C(=O)O [VPA, Valproic acid]
[1]
  serum level of 22.7 kDa protein (SELDI-TOF MS peak intensity) vs HS: down-regulated in the VPA group sharply
[2]
  ratio of VPA to HS, claudin-3 peptide iTRAQ tag intensity in serum: 0.425
[3]
  serum claudin-3 by Western blot: no claudin-3 was detected
[4]
  intestinal claudin-3 protein level by Western blot: significantly attenuated the HS-induced reduction of claudin-3
[5]
  intestinal claudin-3 mRNA expression by RT-PCR: did not significantly change claudin-3 mRNA expression
[6]
  survival after hemorrhagic shock: survived
[7]
  survival after lethal HS (literature): improves survival after lethal HS in rats
